Data reported in ChEMBL document CHEMBL5291721, “A preclinical secondary pharmacology resource illuminates target-adverse drug reaction associations of marketed drugs” (Nat Commun, 2023).
Values belong to the molecule of their own block, whether it stands above or below them.

Experiments:
[1] = biological target: Synaptic vesicular amine transporter (Rattus norvegicus, UniProt Q01827); type: functional
[2] = biological target: T1, Muscarinic acetylcholine receptor M1 (Homo sapiens, UniProt P11229)
T1 sequence (P11229 whole entry): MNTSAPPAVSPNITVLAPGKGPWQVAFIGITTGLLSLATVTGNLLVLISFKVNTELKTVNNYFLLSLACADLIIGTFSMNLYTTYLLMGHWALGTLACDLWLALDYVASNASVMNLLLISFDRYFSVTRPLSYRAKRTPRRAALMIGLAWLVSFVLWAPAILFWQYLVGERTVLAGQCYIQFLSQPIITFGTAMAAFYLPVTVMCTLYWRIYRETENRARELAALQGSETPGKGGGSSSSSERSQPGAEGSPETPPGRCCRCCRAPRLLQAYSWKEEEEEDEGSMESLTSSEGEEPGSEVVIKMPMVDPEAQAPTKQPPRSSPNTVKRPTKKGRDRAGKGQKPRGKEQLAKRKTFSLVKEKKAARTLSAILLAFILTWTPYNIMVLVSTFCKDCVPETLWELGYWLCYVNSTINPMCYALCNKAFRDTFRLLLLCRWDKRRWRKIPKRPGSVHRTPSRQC

[3] = biological target: 5-hydroxytryptamine receptor 6 (Homo sapiens, UniProt P50406)
[4] = biological target: Gamma-aminobutyric acid type B receptor subunit 1 (Homo sapiens, UniProt Q9UBS5)
[5] = biological target: T2, Alpha-1A adrenergic receptor (Homo sapiens, UniProt P35348)
T2 sequence (P35348 whole entry): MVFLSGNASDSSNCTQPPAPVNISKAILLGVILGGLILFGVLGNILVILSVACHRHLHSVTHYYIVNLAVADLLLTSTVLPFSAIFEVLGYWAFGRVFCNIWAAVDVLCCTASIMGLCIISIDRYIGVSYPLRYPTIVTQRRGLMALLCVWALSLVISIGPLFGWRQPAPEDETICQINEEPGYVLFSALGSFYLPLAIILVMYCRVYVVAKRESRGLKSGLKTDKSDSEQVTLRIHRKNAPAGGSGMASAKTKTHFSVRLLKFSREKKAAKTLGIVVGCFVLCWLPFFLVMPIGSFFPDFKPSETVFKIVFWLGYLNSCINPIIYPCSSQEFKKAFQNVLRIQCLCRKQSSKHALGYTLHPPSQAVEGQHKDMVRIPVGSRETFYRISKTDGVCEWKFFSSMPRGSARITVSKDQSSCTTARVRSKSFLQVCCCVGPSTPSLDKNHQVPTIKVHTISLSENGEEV

[6] = biological target: T3, B1 bradykinin receptor (Homo sapiens, UniProt P46663)
T3 sequence (P46663 whole entry): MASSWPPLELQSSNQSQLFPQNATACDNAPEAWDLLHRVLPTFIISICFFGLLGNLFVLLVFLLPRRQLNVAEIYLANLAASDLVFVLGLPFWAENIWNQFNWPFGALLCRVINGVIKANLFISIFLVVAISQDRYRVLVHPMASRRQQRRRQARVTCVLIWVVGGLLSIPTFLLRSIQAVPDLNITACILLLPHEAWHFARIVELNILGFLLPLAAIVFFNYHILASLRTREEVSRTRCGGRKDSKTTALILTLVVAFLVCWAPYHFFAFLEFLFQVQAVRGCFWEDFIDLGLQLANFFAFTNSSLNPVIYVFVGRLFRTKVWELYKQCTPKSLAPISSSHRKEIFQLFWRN

[7] = biological target: T4, Corticotropin-releasing factor receptor 2 (Homo sapiens, UniProt Q13324)
T4 sequence (Q13324 whole entry): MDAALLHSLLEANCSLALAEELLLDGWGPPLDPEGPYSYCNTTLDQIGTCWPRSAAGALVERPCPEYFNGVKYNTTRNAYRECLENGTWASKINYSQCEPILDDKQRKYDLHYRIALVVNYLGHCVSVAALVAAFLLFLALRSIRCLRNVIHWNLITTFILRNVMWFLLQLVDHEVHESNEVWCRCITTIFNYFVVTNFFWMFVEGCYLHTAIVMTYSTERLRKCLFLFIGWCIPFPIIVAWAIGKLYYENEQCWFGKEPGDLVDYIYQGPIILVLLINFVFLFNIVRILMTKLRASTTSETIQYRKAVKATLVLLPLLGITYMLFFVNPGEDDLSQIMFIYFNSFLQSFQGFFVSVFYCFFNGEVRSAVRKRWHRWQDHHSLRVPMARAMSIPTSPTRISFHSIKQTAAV

[8] = biological target: T5, D(1A) dopamine receptor (Homo sapiens, UniProt P21728)
[9] = biological target: Cannabinoid receptor 1 (Homo sapiens, UniProt P21554); type: functional
[10] = biological target: 5-hydroxytryptamine receptor 7 (Homo sapiens, UniProt P34969)
[11] = biological target: T5, D(1A) dopamine receptor; type: functional, cell-based
[12] = biological target: 5-hydroxytryptamine receptor 2A (Homo sapiens, UniProt P28223)
[13] = biological target: T6, Muscarinic acetylcholine receptor M2 (Homo sapiens, UniProt P08172)
T6 sequence (P08172 whole entry): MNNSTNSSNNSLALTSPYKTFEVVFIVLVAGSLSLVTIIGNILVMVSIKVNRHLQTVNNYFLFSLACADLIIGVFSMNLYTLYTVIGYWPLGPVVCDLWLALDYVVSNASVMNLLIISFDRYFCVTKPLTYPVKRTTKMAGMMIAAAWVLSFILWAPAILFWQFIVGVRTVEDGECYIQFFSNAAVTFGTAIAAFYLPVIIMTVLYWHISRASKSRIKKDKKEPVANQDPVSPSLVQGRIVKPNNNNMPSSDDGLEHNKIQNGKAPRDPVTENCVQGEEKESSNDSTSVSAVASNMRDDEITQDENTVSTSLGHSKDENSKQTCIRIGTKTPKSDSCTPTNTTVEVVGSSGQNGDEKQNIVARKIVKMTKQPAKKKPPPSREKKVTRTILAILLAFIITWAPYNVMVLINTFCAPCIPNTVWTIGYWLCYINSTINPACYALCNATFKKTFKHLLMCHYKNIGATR

[14] = biological target: Histamine H1 receptor (Homo sapiens, UniProt P35367); type: functional, cell-based
[15] = biological target: Hydroxycarboxylic acid receptor 2 (Homo sapiens, UniProt Q8TDS4)
[16] = biological target: T5, D(1A) dopamine receptor; remark: listed apart in the source
[17] = biological target: Beta-1 adrenergic receptor (Homo sapiens, UniProt P08588); type: functional, cell-based
Further: assay procedure not described here.

T5 sequence (P21728 whole entry): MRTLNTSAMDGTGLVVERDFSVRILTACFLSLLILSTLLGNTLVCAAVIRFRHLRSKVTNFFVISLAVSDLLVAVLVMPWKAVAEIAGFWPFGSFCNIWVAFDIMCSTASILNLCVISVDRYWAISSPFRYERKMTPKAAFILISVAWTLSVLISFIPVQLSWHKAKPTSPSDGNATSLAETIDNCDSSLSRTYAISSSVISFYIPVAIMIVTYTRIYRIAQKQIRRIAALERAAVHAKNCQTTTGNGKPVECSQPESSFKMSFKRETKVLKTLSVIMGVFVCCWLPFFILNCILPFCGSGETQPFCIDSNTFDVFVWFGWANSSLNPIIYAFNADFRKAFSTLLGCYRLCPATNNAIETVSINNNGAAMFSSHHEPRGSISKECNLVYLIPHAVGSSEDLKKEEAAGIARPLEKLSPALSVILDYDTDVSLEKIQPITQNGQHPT
Chain of Synaptic vesicular amine transporter (Q01827 whole entry): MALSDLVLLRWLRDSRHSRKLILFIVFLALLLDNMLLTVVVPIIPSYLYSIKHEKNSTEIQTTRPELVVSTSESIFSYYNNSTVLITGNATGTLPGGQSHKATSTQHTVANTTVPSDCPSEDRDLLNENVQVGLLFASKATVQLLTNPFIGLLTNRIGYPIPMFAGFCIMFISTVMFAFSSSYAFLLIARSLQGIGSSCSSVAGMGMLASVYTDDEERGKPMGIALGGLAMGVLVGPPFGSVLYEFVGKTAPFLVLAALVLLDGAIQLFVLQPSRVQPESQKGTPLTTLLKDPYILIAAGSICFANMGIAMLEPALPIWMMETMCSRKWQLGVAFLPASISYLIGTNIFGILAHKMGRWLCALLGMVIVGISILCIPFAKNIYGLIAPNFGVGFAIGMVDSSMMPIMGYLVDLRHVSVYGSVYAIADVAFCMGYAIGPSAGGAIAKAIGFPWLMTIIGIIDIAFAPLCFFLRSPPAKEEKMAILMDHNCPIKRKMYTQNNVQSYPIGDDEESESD
Chain of 5-hydroxytryptamine receptor 6 (P50406 whole entry): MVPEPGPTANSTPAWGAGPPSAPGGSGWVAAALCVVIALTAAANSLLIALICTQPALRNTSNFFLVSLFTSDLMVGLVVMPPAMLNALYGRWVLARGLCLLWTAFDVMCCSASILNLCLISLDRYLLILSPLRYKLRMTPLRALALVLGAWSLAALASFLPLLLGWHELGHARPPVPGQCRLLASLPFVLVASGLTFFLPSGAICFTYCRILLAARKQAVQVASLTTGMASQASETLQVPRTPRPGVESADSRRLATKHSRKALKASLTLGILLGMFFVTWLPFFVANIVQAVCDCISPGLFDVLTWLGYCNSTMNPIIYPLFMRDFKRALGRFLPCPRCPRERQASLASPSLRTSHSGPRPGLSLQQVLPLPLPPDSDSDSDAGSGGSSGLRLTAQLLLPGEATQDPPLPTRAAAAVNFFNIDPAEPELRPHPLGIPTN
Chain of 5-hydroxytryptamine receptor 7 (P34969 whole entry): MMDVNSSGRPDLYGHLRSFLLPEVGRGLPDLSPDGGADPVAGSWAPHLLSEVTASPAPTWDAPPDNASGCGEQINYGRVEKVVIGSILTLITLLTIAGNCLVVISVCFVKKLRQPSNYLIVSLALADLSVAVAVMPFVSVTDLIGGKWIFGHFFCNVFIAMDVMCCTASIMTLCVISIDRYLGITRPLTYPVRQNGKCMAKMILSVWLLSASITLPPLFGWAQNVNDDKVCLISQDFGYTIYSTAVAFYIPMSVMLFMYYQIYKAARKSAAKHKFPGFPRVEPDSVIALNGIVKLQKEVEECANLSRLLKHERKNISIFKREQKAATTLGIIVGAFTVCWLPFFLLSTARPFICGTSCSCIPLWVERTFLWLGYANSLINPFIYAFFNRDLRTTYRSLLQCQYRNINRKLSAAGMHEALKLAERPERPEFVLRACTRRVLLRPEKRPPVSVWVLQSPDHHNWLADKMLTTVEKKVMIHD
Chain of Hydroxycarboxylic acid receptor 2 (Q8TDS4 whole entry): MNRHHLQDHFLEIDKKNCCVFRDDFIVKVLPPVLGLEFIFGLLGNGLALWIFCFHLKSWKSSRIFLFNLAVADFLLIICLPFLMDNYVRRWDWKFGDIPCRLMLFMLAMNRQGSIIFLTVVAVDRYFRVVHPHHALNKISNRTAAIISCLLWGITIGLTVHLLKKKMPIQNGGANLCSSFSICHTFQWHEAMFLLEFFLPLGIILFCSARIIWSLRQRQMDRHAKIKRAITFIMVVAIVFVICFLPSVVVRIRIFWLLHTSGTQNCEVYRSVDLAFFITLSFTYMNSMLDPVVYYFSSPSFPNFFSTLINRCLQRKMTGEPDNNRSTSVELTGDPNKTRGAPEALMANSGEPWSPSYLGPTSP
Chain of Beta-1 adrenergic receptor (P08588 whole entry): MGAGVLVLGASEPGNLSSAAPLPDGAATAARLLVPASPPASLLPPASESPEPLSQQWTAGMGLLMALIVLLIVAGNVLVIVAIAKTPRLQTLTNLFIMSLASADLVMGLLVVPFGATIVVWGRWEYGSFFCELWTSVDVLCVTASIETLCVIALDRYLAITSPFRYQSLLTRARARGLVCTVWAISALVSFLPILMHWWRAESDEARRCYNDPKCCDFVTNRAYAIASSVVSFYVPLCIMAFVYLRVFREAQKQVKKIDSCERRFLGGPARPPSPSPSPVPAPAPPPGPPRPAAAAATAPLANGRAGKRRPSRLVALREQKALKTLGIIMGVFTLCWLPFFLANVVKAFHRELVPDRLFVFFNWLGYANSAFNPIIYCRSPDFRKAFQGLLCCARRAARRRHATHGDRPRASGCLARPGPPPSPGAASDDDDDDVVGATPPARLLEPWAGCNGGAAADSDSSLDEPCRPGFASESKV
Chain of Gamma-aminobutyric acid type B receptor subunit 1 (Q9UBS5 whole entry): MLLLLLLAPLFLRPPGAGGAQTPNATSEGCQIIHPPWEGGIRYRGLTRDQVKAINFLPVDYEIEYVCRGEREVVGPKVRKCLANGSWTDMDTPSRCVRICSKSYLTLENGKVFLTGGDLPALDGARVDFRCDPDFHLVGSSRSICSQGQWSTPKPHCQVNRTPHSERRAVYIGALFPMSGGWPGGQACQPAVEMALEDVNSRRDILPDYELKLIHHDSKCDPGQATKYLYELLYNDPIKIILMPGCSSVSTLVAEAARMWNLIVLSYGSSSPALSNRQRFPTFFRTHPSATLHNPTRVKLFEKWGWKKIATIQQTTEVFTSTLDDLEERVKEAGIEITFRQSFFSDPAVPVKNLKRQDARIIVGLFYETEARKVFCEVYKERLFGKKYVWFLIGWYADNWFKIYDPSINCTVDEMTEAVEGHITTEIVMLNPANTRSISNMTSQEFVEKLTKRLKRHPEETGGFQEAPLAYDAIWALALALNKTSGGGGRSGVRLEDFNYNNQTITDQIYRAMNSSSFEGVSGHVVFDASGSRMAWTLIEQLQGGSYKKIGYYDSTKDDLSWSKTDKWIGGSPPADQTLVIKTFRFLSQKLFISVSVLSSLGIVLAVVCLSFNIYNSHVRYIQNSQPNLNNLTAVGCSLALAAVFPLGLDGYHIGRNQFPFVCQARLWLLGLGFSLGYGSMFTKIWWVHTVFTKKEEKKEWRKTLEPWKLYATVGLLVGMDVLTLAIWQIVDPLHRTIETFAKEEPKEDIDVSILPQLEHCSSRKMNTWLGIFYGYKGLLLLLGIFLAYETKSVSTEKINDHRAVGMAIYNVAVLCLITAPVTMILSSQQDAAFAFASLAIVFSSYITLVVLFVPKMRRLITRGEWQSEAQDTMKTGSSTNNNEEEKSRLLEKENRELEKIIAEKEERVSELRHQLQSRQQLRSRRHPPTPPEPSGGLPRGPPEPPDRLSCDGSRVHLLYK
Chain of Cannabinoid receptor 1 (P21554 whole entry): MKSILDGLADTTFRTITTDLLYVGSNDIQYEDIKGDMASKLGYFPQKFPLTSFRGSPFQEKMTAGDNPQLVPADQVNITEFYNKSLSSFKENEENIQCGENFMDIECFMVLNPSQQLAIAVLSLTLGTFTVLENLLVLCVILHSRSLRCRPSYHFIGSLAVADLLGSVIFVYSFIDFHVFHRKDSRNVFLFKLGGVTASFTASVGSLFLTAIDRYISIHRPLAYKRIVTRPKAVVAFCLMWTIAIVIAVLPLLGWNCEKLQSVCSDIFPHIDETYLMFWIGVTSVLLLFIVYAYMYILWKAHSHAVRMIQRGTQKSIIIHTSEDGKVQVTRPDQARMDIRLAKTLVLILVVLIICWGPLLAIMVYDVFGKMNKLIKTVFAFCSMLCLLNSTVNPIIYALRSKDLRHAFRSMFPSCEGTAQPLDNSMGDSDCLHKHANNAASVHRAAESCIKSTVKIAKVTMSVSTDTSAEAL
Chain of 5-hydroxytryptamine receptor 2A (P28223 whole entry): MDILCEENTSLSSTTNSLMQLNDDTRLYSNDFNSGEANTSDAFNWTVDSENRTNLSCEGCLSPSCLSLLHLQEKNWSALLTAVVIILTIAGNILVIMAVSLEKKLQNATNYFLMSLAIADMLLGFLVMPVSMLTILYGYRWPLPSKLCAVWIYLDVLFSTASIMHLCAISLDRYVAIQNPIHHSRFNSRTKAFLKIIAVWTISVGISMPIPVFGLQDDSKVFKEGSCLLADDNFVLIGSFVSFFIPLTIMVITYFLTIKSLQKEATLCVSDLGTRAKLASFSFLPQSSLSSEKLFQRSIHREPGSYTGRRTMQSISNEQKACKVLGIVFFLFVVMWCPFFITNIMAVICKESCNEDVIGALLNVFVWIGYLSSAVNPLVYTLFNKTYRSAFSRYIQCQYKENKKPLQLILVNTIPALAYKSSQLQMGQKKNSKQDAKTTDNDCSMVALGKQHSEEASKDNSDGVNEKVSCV

Structure (SMILES): OC[C@H]1NC[C@H](O)[C@@H](O)[C@H]1O
AC50 [1]: > 30000 nM

Structure (SMILES): O=C(O)[C@@H](S)[C@@H](S)C(=O)O
AC50 [2]: > 30 µM

Structure (SMILES): CCOC(=O)[C@H](CCc1ccccc1)N[C@@H](C)C(=O)N1Cc2ccccc2C[C@H]1C(=O)O
AC50 [3]: > 10 µM | AC50 [4]: > 10 µM | AC50 [5]: > 10 µM | AC50 [6]: > 30 µM | AC50 [7]: > 30 µM | AC50 [8]: > 10 µM | AC50 [9]: > 10 µM | AC50 [10]: > 10 µM

Structure (SMILES): CCC[C@@]1(CCc2ccccc2)CC(O)=C([C@H](CC)c2cccc(NS(=O)(=O)c3ccc(C(F)(F)F)cn3)c2)C(=O)O1
AC50 [11]: 14 µM

AC50 [12]: > 10 µM
Structure (SMILES): C=CC1=C(C(=O)O)N2C(=O)[C@@H](NC(=O)/C(=N\O)c3csc(N)n3)[C@H]2SC1

Structure (SMILES): CC#CC(=O)N1CCC[C@H]1c1nc(-c2ccc(C(=O)Nc3ccccn3)cc2)c2c(N)nccn12 [ACALABRUTINIB]
AC50 [13]: > 30 µM | AC50 [2]: > 30 µM

AC50 [14]: > 30 µM
Structure (SMILES): CN(C)CCc1c[nH]c2ccc(CS(=O)(=O)N3CCCC3)cc12 [ALMOTRIPTAN]

Structure (SMILES): CN(C)CCC=C1c2ccccc2CCc2ccccc21 [AMITRIPTYLINE]
AC50 [6]: > 30 µM | AC50 [7]: > 30 µM | AC50 [8]: 0.452 µM | AC50 [15]: > 10 µM

Structure (SMILES): CN1CC2c3ccccc3Oc3ccc(Cl)cc3C2C1 (centres undefined) [ASENAPINE]
AC50 [1]: 1050 nM | AC50 [16]: 10 nM | AC50 [11]: 0.244 µM

Structure (SMILES): CC(=O)Oc1ccccc1C(=O)O [ASPIRIN]
AC50 [3]: > 10 µM | AC50 [4]: > 10 µM | AC50 [5]: > 10 µM | AC50 [13]: > 30 µM | AC50 [6]: > 30 µM | AC50 [7]: > 30 µM | AC50 [8]: > 10 µM | AC50 [9]: > 10 µM | AC50 [16]: > 30000 nM | AC50 [10]: > 10 µM

Structure (SMILES): Cn1cnc2c(F)c(Nc3ccc(Br)cc3F)c(C(=O)NOCCO)cc21 [BINIMETINIB]
AC50 [1]: > 30000 nM | AC50 [11]: > 30 µM

AC50 [17]: > 30 µM
Structure (SMILES): CCN(CC)CCn1c(=O)c(Cc2ccc(OC)cc2)nc2ccccc21 [CAROVERINE]

Structure (SMILES): O=C(Cc1cccs1)N[C@@H]1C(=O)N2C(C(=O)[O-])=C(C[n+]3ccccc3)CS[C@H]12 [CEPHALORIDINE]
AC50 [2]: > 30 µM

Structure (SMILES): C[C@H](CCC(=O)O)[C@H]1CC[C@H]2[C@@H]3[C@H](O)C[C@@H]4C[C@H](O)CC[C@]4(C)[C@H]3CC[C@]12C [CHENODIOL]
AC50 [11]: > 30 µM

Structure (SMILES): CN(C)CCCC1(c2ccc(F)cc2)OCc2cc(C#N)ccc21 (centres undefined) [CITALOPRAM]
AC50 [6]: > 30 µM | AC50 [7]: > 30 µM | AC50 [15]: > 10 µM

AC50 [17]: > 30 µM
Structure (SMILES): CC(C)/N=c1\cc2n(-c3ccc(Cl)cc3)c3ccccc3nc-2cc1Nc1ccc(Cl)cc1 [CLOFAZIMINE]

Structure (SMILES): C[C@H](Nc1ncnc2[nH]cnc12)c1cc2cccc(Cl)c2c(=O)n1-c1ccccc1 [DUVELISIB]
AC50 [2]: > 30 µM | AC50 [11]: > 30 µM

Structure (SMILES): O=c1[nH]c2ccccc2n1CCN1CCN(c2cccc(C(F)(F)F)c2)CC1 [FLIBANSERIN]
AC50 [1]: 72 nM
